9 compounds from ChEMBL document CHEMBL1150008, “Synthesis and -lactamase inhibitory evaluation of novel 6-halo-2-chloromethyl-2-methylpenam-3-carboxylic acids and their sulfones and 6-halo-2-mercaptobenzothiazolylmethyl-2-methylpenam-3-carboxylic acids” (Bioorg Med Chem Lett, 1995) can be followed below.

What is called IC50 is the midpoint of a concentration-inhibition curve. A higher IC50 goes with a need for much substance.

The target in one experiment is T1, Beta-lactamase 1 (Bacillus cereus, UniProt P00809).
T1 sequence (P00809 whole entry): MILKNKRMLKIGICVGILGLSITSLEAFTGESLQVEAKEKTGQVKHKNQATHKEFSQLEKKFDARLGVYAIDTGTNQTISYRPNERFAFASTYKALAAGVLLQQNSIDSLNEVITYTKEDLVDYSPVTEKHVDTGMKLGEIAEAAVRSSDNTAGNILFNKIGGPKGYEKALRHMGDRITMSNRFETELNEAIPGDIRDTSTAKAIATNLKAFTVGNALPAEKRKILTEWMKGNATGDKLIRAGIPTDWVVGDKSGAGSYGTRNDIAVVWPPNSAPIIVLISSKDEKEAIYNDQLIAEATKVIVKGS
In words: Tested for the ability to inhibit Beta-lactamase of Bacillus cereus (class A enzyme) with 10 minutes pre-incubation.
The compound `CC1(C)[C@H](C(=O)O)N2C(=O)[C@H](Cl)[C@H]2S1(=O)=O` came in with an IC50 of 200 µM.
Compound `C[C@]1(CCl)[C@H](C(=O)O)N2C(=O)[C@H](Br)[C@H]2S1(=O)=O` displayed a concentration for half-maximal inhibition (IC50) of 1000 µM.
On the same count and under the same terms, the value for `C[C@]1(CCl)[C@H](C(=O)O)N2C(=O)[C@H](Cl)[C@H]2S1(=O)=O` was 70 µM; that for `C[C@@]1(CSc2nc3ccccc3s2)S[C@@H]2[C@@H](F)C(=O)N2[C@H]1C(=O)O` was greater than 5000 µM; that for `C[C@]1(CCl)[C@H](C(=O)O)N2C(=O)C[C@H]2S1(=O)=O` was 300 µM.
As for `CC1(C)[C@H](C(=O)O)N2C(=O)C[C@H]2S1(=O)=O` [SULBACTAM], inhibition was half-maximal at 25 µM (IC50).
The same measure, in the same setting: the value for `C[C@]1(CCl)[C@H](C(=O)O)N2C(=O)[C@H](F)[C@H]2S1(=O)=O` was greater than 3000 µM; that for `C[C@@]1(CSc2nc3ccccc3s2)S[C@@H]2[C@@H](Cl)C(=O)N2[C@H]1C(=O)O` was greater than 5000 µM; that for `C[C@@]1(CSc2nc3ccccc3s2)S[C@@H]2[C@@H](Br)C(=O)N2[C@H]1C(=O)O` was greater than 5000 µM.

The target in a further experiment is T1, Beta-lactamase 1. In words: Inhibition of Beta-lactamase of Bacillus cereus (class A enzyme) without pre-incubation.
Turning to `CC1(C)[C@H](C(=O)O)N2C(=O)[C@H](Cl)[C@H]2S1(=O)=O`, inhibition was half-maximal at 1500 µM (IC50).
Still for that read-out and setting: the value for `C[C@]1(CCl)[C@H](C(=O)O)N2C(=O)[C@H](Br)[C@H]2S1(=O)=O` was 3000 µM.
For the compound `C[C@]1(CCl)[C@H](C(=O)O)N2C(=O)[C@H](Cl)[C@H]2S1(=O)=O`, the IC50 is 450 µM.
`C[C@@]1(CSc2nc3ccccc3s2)S[C@@H]2[C@@H](F)C(=O)N2[C@H]1C(=O)O`: the IC50 is greater than 5000 µM.
The same measure, in the same setting: the value for `C[C@]1(CCl)[C@H](C(=O)O)N2C(=O)C[C@H]2S1(=O)=O` was 250 µM; that for `CC1(C)[C@H](C(=O)O)N2C(=O)C[C@H]2S1(=O)=O` [SULBACTAM] was 25 µM; that for `C[C@]1(CCl)[C@H](C(=O)O)N2C(=O)[C@H](F)[C@H]2S1(=O)=O` was greater than 3000 µM.
In turn, `C[C@@]1(CSc2nc3ccccc3s2)S[C@@H]2[C@@H](Cl)C(=O)N2[C@H]1C(=O)O` yielded an IC50 greater than 5000 µM.
The same measure, in the same setting: the value for `C[C@@]1(CSc2nc3ccccc3s2)S[C@@H]2[C@@H](Br)C(=O)N2[C@H]1C(=O)O` was greater than 5000 µM.
